Measured values reported in EP0067565A1, “Pharmaceutically active compounds” (BEECHAM GROUP PLC, priority 1981, dated 1982).

Assays:
rats = test: Increase in intragastric pressure; assay type: in vivo; conditions: dose level of 1.0 mg/kg s.c.; conscious but restrained rats; average height of pressure waves, 40 minute period after administration vs pre-dose; Student's t test
Method: Intragastric pressure changes were recorded from previously starved conscious but restrained rats using a saline filled catheter inserted into the lumen of the stomach via a permanent gastric fistula. The catheter was connected to a physiological pressure transducer and pressure changes recorded on a hot wire pen recorder. In each animal a pre-dose period of 40 minutes was allowed to obtain a measure of spontaneous activity. An index of activity was obtained by measuring the average height of pressure waves during 10 minute periods. Values for 4 such periods were obtained during assessment of spontaneous activity and for 40 minute period after administration of compound. Student's "t" test was applied to the difference in average values obtained for spontaneous and post compound activity.

dog = test: Anti-emetic activity in the dog (apomorphine-induced vomiting); assay type: in vivo; conditions: compound subcutaneously 30 minutes prior to apomorphine HC1 0.1 mg/kg subcutaneously; for ED50: Canis lupus familiaris, sc, read-out: ED50 values for inhibition of the vomiting response
Method: Compounds were administered subcutaneously 30 minutes prior to administration of a standard dose of apomorphine HC1 (0.1 mg/kg subcutaneously) and the vomiting response compared to that obtained when the same animals were dosed with apomorphine HC1 and vehicle only. The ED50 values for inhibition of the vomiting response determined for compound 11 and 13 were 1.0 mg/kg; for compound 33, 0.1 mg/kg and for compound 35, 0.01 mg/kg.

## COc1cc(N)c(Cl)cc1C(=O)N[C@H]1C[C@@H]2CCCN2[C@H](C)C1 (racemic) [Compound 9, (±) 4-Amino-5-chloro-2-methoxy-N-[7'α-(9'β-methyl-1'-aza-5'α-H-bicyclo[4,3,0]nonyl)]benzamide]
rats
  index of activity post administration: significantly increased

## COc1cc(N)c(Cl)cc1C(=O)N[C@@H]1C[C@@H]2CCCN2[C@@H](C)C1 (racemic) [Compound 11, (±) 4-Amino-5-chloro-2-methoxy-rd-[7'β-(9'α-methyl-1'-aza-5α-H-bicyclo[4,3,0]nonyl)]benzamide]
rats
  index of activity post administration: significantly increased
dog
  ED50: 1 mg/kg

## COc1cc(N)c(Cl)cc1C(=O)N[C@@H]1C[C@@H]2CCCN2[C@H](C)C1 (racemic) [Compound 8, (±) 4-Amino-5-chloro-2-methoxy-N-[7'β-(9'β-methyl-1'-aza-5'α-H-bicyclo[4,3,n]nonyl)]benzamide]
rats
  index of activity post administration: significantly increased

## COc1cc(N)c(Cl)cc1C(=O)N[C@H]1C[C@@H]2CCCN2[C@@H](C)C1 (racemic) [Compound 13, (±) 4-Amino-5-chloro-2-methoxy-N-[7'α-(9'α-methyl-1'-aza-5α-H-bicyclo[4,3,0]nonyl)]benzamide]
dog
  ED50: 1 mg/kg

## CC[C@H]1C[C@H](NC(=O)c2cc(Cl)c(N)cc2OC)C[C@@H]2CCCN12 (racemic) [Compound 33, (±) 4-Amino-5-chloro-2-methoxy-N-[7'β-(9'α-ethyl-1'-aza-5'α-H-bicyclo[4,3,0]nonyl)]benzamide]
dog
  ED50: 0.1 mg/kg

## (±) 4-Amino-5-chloro-2-methoxy-N-[7'β-(9'α-isopropyl-1'-aza-5'-α-H-bicyclo[4,3,0]nonyl)]benzamide [Compound 35]
dog
  ED50 values for inhibition of the vomiting response: 0.01 mg/kg
